Source: patent EP3381906A1, “COMPOUNDS FOR USE AS HEPARANASE INHIBITORS” (Leadiant Biosciences SA, priority 2017, dated 2018)

Experiments:
U87MG = experiment: Cell adhesion assay on matrigel coated wells; type: cell-based, human; settings: Conc. 10 µM, percent of adhesion with respect to the control (100%)
[1] = test system: HT1080 (human fibrosarcoma); experiment: Cell adhesion assay on matrigel coated wells; type: cell-based; settings: HT1080, Conc. 10 µM; percent of adhesion with respect to the control (100%)
Protocol: Cell surface, non-integrin molecules such as heparan sulfate proteoglycans (HSPGs) may be involved in the regulation of early adhesive stages of cell-ECM interactions. A cell adhesion assay has been employed to determine if the newly designed heparanase inhibitors were able to interfere with adhesion properties of cancer cells.
HT1080 (human fibrosarcoma) cells were treated for 18-20 h with test compounds in complete medium supplemented with 10% FCS. Then cells were collected, washed in complete medium, and added to matrigel coated wells in triplicate, at previously identified optimal seeding density, and incubated at 37 °C in complete medium for times ranging from 15 minutes to 4h, according to the cell line. After incubation, the wells were washed three times with serum-free medium and the remaining firmly attached cells were stained with crystal-violet 0.1%. Optical density was measured at 560 nm by Victor 3 (Perkin-Elmer) plate analyzer. Each experiment was repeated three times.

[2] = test system: U2OS (human osteosarcoma); experiment: SRB Cell Cytotoxicity Assay; type: cell-based; settings: treated for 72h, read-out: Concentration of test compounds at which the cell growth is inhibited by 50 % U2OS
[3] = test system: HT1080 (human fibrosarcoma); experiment: SRB Cell Cytotoxicity Assay; type: cell-based; settings: HT-1080, HT1080, treated for 72h, read-out: Concentration of test compounds at which the cell growth is inhibited by 50 % HT1080
U2OS = experiment: Matrigel cell invasion assay; type: cell-based, human; parameters: key to Invasion Assay Inhibition (%) U2OS: +++: > 90%; ++: 50-90 %; +: < 50%; -: Not active; settings: Conc. 10 µM

## COc1cc(N=Nc2cc(S(=O)(=O)O)cc3cc(S(=O)(=O)O)cc(O)c23)c(C)cc1NC(=O)Nc1cc(C)c(N=Nc2cc(S(=O)(=O)O)cc3cc(S(=O)(=O)O)cc(O)c23)cc1OC [SST0597]
U87MG
  Adhesion Assay (%) U87MG: ∼ 23%
[1]
  Adhesion Assay (%) HT1080: ∼ 85%
[2]
  EC50: > 10 µM
[3]
  EC50: > 10 µM
U2OS
  Invasion Assay Inhibition (%) U2OS: -
